Laboratory results published in patent US20090233943A9, “NEW COMPOUNDS 835” (priority 2007, published 2009).
Structures can show the parent of a compound that is named as a salt.

These compounds were tested against T1, human β-Secretase (soluble part, AA 1-AA 460, sBACE-Fc) (Homo sapiens, UniProt P56817) (assay: TR-FRET assay (β-secretase enzyme)).
T1 construct: The soluble part of the human β-Secretase (AA 1-AA 460) was cloned; made in house
Type: biochemical
Protocol: The enzyme used in the IGEN Cleavage-, Fluorescent-, TR-FRET- and BiaCore assays is described as follows:
The soluble part of the human β-Secretase (AA 1-AA 460) was cloned into the ASP2-Fc10-1-IRES-GFP-neoK mammalian expression vector. The gene was fused to the Fc domain of IgG1 (affinity tag) and stably cloned into SEEK 293 cells. Purified sBACE-Fc is stored in Tris buffer, pH 9.2 and has a purity of 95%.
Enzyme was diluted to 6 μg/mL and the substrate (Europium)[…](Qsy7) to 200 nM in reaction buffer (NaAcetate, chaps, triton x-100, EDTA pH 4.5). Compounds were diluted to the desired concentration in dimethyl sulfoxide (final dimethyl sulfoxide concentration in assay is 5%). […] Enzyme (9 μL) and 1 μL of compound in dimethyl sulfoxide was added to the plate, mixed and pre-incubated for 10 min. Substrate (10 μL) was added and the reaction proceeded in the dark for 15 min at RT. The reaction was stopped with the addition of 7 μL NaAcetate, pH 9. The fluorescence of the product was measured on a Victor II plate reader with an excitation wavelength of 340 nm and an emission wavelength of 615 nm. […] The dimethyl sulfoxide control defined the 100% activity level and 0% activity was defined by exclusion of the enzyme (using reaction buffer instead).

T1 sequence (P56817 22-460): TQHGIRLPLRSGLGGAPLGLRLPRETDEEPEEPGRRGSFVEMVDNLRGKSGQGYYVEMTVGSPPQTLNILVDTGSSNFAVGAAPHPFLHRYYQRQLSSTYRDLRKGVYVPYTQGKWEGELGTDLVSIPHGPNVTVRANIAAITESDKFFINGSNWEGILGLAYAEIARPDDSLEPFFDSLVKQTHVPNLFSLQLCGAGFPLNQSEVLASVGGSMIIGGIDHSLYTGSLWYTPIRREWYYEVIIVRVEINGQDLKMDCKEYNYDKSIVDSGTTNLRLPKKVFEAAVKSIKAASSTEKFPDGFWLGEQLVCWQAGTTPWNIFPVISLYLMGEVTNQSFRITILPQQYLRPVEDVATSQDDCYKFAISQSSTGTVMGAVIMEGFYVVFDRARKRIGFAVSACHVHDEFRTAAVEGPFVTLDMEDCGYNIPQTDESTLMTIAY

| Compound | IC50 [nM] |
| --- | --- |
| COc1cncc(-c2cc(C3(c4ccc(S(F)(F)(F)(F)F)cc4)N=C(N)N(C)C3=O)ccc2F)c1 (single isomer, unassigned) [26 isomer 1] | 13 |
| COc1cncc(-c2cc(C3(c4ccc(S(F)(F)(F)(F)F)cc4)N=C(N)N(C)C3=O)ccc2F)c1 (single isomer, unassigned) [26 isomer 2] | 465 |
| COc1cccc(-c2cccc(C3(c4ccc(S(F)(F)(F)(F)F)cc4)N=C(N)N(C)C3=O)c2)c1F (single isomer, unassigned) [37 isomer 1] | 49 |
| COc1cccc(-c2cccc(C3(c4ccc(S(F)(F)(F)(F)F)cc4)N=C(N)N(C)C3=O)c2)c1F (single isomer, unassigned) [37 isomer 2] | 2630 |
| COc1cccc(-c2cc(C3(c4ccc(N=S(C)(C)=O)cc4)N=C(N)N(C)C3=O)ccc2F)c1 (stereo not drawn) [Example 5, 2-Amino-5-(4-{[dimethyl(oxido)-λ^4-sulfanylidene]amino}phenyl)-5-(6-fluoro-3′-methoxybiphenyl-3-yl)-3-methyl-3,5-dihydro-4H-imidazol-4-one hydrochloride] | 756 |
| CN1C(=O)C(c2ccc(S(F)(F)(F)(F)F)cc2)(c2ccc(F)c(-c3cncnc3)c2)N=C1N (stereo not drawn) [Example 22, 2-Amino-5-(4-fluoro-3-pyrimidin-5-ylphenyl)-3-methyl-5-[4-(pentafluoro-λ^6-sulfanyl)phenyl]-3,5-dihydro-4H-imidazol-4-one] | 49 |
| CN1C(=O)C(c2ccc(S(F)(F)(F)(F)F)cc2)(c2ccc(F)c(-c3cncc(C#N)c3)c2)N=C1N (stereo not drawn) [Example 23, 5-(5-{2-Amino-1-methyl-5-oxo-4-[4-(pentafluoro-A-sulfanyl)phenyl]-4,5-dihydro-1H-imidazol-4-yl}-2-fluorophenyl)nicotinonitrile 0.25 acetate] | 101 |
| CN1C(=O)C(c2ccc(S(F)(F)(F)(F)F)cc2)(c2ccc(F)c(-c3cccnc3)c2)N=C1N (stereo not drawn) [Example 24, 2-Amino-5-(4-fluoro-3-pyridin-3-ylphenyl)-3-methyl-5-[4-(pentafluoro-λ^6-sulfanyl)phenyl]-3,5-dihydro-4H-imidazol-4-one] | 53 |
| COc1cncc(-c2cc(C3(c4ccc(S(F)(F)(F)(F)F)cc4)N=C(N)N(C)C3=O)ccc2F)c1 (stereo not drawn) [Example 25, 2-Amino-5-[4-fluoro-3-(5-methoxypyridin-3-yl)phenyl]-3-methyl-5-[4-(pentafluoro-λ^6-sulfanyl)phenyl]-3,5-dihydro-4H-imidazol-4-one] | 30 |
| CN1C(=O)C(c2ccc(S(F)(F)(F)(F)F)cc2)(c2ccc(F)c(-c3cncc(F)c3)c2)N=C1N (stereo not drawn) [Example 27, 2-Amino-5-[4-fluoro-3-(5-fluoropyridin-3-yl)phenyl]-3-methyl-5-[4-(pentafluoro-λ^6-sulfanyl)phenyl]-3,5-dihydro-4H-imidazol-4-one 0.25 acetate] | 81 |
| CN1C(=O)C(c2ccc(S(F)(F)(F)(F)F)cc2)(c2ccc(F)c(-c3cccnc3F)c2)N=C1N (stereo not drawn) [Example 28, 2-amino-5-[4-fluoro-3-(2-fluoropyridin-3-yl)phenyl]-3-methyl-5-[4-(pentafluoro-λ^6-sulfanyl)phenyl]-3,5-dihydro-4H-imidazol-4-one 0.25 acetate] | 69 |
| CN1C(=O)C(c2ccc(S(F)(F)(F)(F)F)cc2)(c2ccc(F)c(-c3cnccc3C#N)c2)N=C1N (stereo not drawn) [Example 29, 3-(5-{2-amino-1-methyl-5-oxo-4-[4-(pentafluoro-λ^6-sulfanyl)phenyl]-4,5-dihydro-1H-imidazol-4-yl}-2-fluorophenyl)isonicotinonitrile 0.25 acetate] | 81 |
| CN1C(=O)C(c2ccc(S(F)(F)(F)(F)F)cc2)(c2ccc(F)c(-c3cnccn3)c2)N=C1N (stereo not drawn) [Example 30, 2-amino-5-(4-fluoro-3-pyrazin-2-ylphenyl)-3-methyl-5-[4-(pentafluoro-λ^6-sulfanyl)phenyl]-3,5-dihydro-4H-imidazol-4-one 0.75 acetate] | 124 |
| CN1C(=O)C(c2ccc(S(F)(F)(F)(F)F)cc2)(c2cccc(-c3cccnc3F)c2)N=C1N (stereo not drawn) [Example 31, 2-amino-5-[3-(2-fluoropyridin-3-yl)phenyl]-3-methyl-5-[4-(pentafluoro-λ^6-sulfanyl)phenyl]-3,5-dihydro-4H-imidazol-4-one] | 83 |
| CN1C(=O)C(c2ccc(S(F)(F)(F)(F)F)cc2)(c2cccc(-c3cncnc3)c2)N=C1N (stereo not drawn) [Example 32, 2-amino-3-methyl-5-[4-(pentafluoro-λ^6-sulfanyl)phenyl]-5-(3-pyrimidin-5-ylphenyl)-3,5-dihydro-4H-imidazol-4-one] | 55 |
| CN1C(=O)C(c2ccc(S(F)(F)(F)(F)F)cc2)(c2cccc(-c3cccnc3)c2)N=C1N (stereo not drawn) [Example 33, 2-amino-3-methyl-5-[4-(pentafluoro-λ^6-sulfanyl)phenyl]-5-(3-pyridin-3-ylphenyl)-3,5-dihydro-4H-imidazol-4-one] | 52 |
| CN1C(=O)C(c2ccc(S(F)(F)(F)(F)F)cc2)(c2cccc(-c3cnccc3C#N)c2)N=C1N (stereo not drawn) [Example 34, 3-(3-{2-amino-1-methyl-5-oxo-4-[4-(pentafluoro-λ^6-sulfanyl)phenyl]-4,5-dihydro-1H-imidazol-4-yl}phenyl)pyridine-4-carbonitrile] | 467 |
| CN1C(=O)C(c2ccc(S(F)(F)(F)(F)F)cc2)(c2cccc(-c3cncc(F)c3)c2)N=C1N (stereo not drawn) [Example 35, 2-amino-5-[3-(5-fluoropyridin-3-yl)phenyl]-3-methyl-5-[4-(pentafluoro-λ^6 sulfanyl)phenyl]-3,5-dihydro-4H-imidazol-4-one] | 68 |
| CN1C(=O)C(c2ccc(S(F)(F)(F)(F)F)cc2)(c2cccc(-c3cnccn3)c2)N=C1N (stereo not drawn) [Example 36, 2-amino-3-methyl-5-[4-(pentafluoro-λ^6-sulfanyl)phenyl]-5-(3-pyrazin-2-ylphenyl)-3,5-dihydro-4H-imidazol-4-one] | 56 |
| COc1ccc(F)c(-c2cccc(C3(c4ccc(S(F)(F)(F)(F)F)cc4)N=C(N)N(C)C3=O)c2)c1 (stereo not drawn) [Example 38, 2-amino-5-(2′-fluoro-5′-methoxybiphenyl-3-yl)-3-methyl-5-[4-(pentafluoro-λ^6 sulfanyl)phenyl]-3,5-dihydro-4H-imidazol-4-one] | 71 |
| CN1C(=O)C(c2ccc(S(F)(F)(F)(F)F)cc2)(c2cccc(-c3cc(C#N)ccc3F)c2)N=C1N (stereo not drawn) [Example 39, 2-amino-5-(2′-fluoro-5′-carbonitrilebiphenyl-3-yl)-3-methyl-5-[4-(pentafluoro-λ^6-sulfanyl)phenyl]-3,5-dihydro-4H-imidazol-4-one] | 356 |
| COc1cccc(-c2cccc(C3(c4ccc(S(F)(F)(F)(F)F)cc4)N=C(N)N(C)C3=O)c2)c1 (stereo not drawn) [Example 40, 2-amino-5-(3′-methoxybiphenyl-3-yl)-3-methyl-5-[4-(pentafluoro-λ^6-sulfanyl)phenyl]-3,5-dihydro-4H-imidazol-4-one] | 81 |
| CN1C(=O)C(c2ccc(S(F)(F)(F)(F)F)cc2)(c2cccc(-c3cccc(C#N)c3)c2)N=C1N (stereo not drawn) [Example 41, 3′-{2-amino-1-methyl-5-oxo-4-[4-(pentafluoro-λ^6-sulfanyl)phenyl]-4,5-dihydro-1H-imidazol-4-yl}biphenyl-3-carbonitrile] | 143 |
| CN1C(=O)C(c2ccc(S(F)(F)(F)(F)F)cc2)(c2cccc(-c3cc(C#N)ccn3)c2)N=C1N (stereo not drawn) [Example 42, 2-(3-{2-amino-1-methyl-5-oxo-4-[4-(pentafluoro-λ^6-sulfanyl)phenyl]-4,5-dihydro-1H-imidazol-4-yl}phenyl)pyridine-4-carbonitrile] | 405 |
